In article PMC5445127 (Frontiers in Plant Science, 2017):

Key:
[1] = biological target: T1, ZmSIRK1 (ZmSIRK1^737-1045) (Zea mays, UniProt K7VIQ3); test: isothermal titration calorimetry; format: binding
T1 construct: gene ZEAMMB73_Zm00001d047570; kinase domain Ser737-Ser1045 (full length 1045 aa; KD 762-1040), E. coli BL21(DE3)-R3-pRARE2, pNIC28a-Bsa4, 6xHis tag removed by TEV; forward primer encodes S737-V-V-F-T-A-E (translated); motifs 907DYS909, 933PPE935; model residues 744-972, 977-1000, 1009-1045
T1 sequence (K7VIQ3 entry or part of it): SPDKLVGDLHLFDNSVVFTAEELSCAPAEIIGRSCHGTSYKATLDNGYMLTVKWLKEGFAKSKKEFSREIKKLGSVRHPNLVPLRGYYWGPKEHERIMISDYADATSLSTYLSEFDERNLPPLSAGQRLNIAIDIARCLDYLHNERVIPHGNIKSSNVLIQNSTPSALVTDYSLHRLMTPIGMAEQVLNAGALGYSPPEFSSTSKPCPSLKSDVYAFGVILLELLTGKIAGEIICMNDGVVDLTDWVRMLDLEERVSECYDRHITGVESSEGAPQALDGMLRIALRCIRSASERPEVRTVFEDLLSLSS

[2] = biological target: T1, ZmSIRK1 (ZmSIRK1^737-1045); test: isothermal titration calorimetry; co-crystal structure; format: binding

Kd [1] | SMILES | Kd [2]
1990 nM | Nc1ncnc2c1c(-c1cnc3[nH]ccc3c1)nn2C1CCCC1 [PP121] | –
– | Nc1ncnc2c1ncn2[C@@H]1O[C@H](COP(=O)(O)OP(=O)(O)NP(=O)(O)O)[C@@H](O)[C@H]1O [AMP-PNP] | 2800 nM
1760 nM | CC(C)n1nc(-c2ccc3oc(N)nc3c2)c2c(N)ncnc21 [INK 128] | –
